{"source": "patent US11596662B2", "about": "“Passion flower seed extract, and cosmetic, pharmaceutical or dermatological compositions containing same” (priority 2015, dated 2023)", "key": {"[1]": {"tested_on": "prostaglandin E2 (PGE2)", "test": "PGE2 production in PMA-treated keratinocytes", "assay_type": "cell-based, human", "conditions": "10^−6 M, 24 hours pretreatment, then PMA 0.1 μg/ml 24 hours", "description": "The anti-inflammatory protection of an extract of the invention with respect to a chemical molecule, PMA, was studied by analysis of the release of prostaglandin 2 (PGE2).\nNormal human keratinocytes were pretreated with a 0.002% and a 0.005% extract of the invention, as obtained in Example 1, and with 10^−6 M indomethacin (anti-inflammatory control of the prostaglandin pathway) for 24 hours at 37° C., in order to be able to measure a level of protection of the active agent with respect to inflammation by 0.1 μg/ml PMA (phorbol 12-myristate 13-acetate) used on these same cell monolayers for a further 24 hours. At the end of the treatment, the supernatants are collected and an assay of prostaglandin E2 (PGE2; R&D Systems) is performed. Staining, proportional to the amount of PGE2, was measured by reading the optical density (OD) at 450 nm.\n(§1) The significance of the results was verified by Student's t-test."}, "[2]": {"tested_on": "keratinocytes treated with 9 μg/ml BaP", "test": "ROS production in keratinocytes treated with 9 μg/ml BaP (H2DCF-DA probe)", "assay_type": "cell-based, human", "conditions": "24 hours, then 9 μg/ml BaP 20 minutes", "description": "The keratinocytes were then stimulated with 9 μg/ml benzo-α-pyrene (BaP) for 20 minutes. ROS production was evaluated by measurement of fluorescence.\nas §1"}, "[3]": {"tested_on": "haem oxygenase 1 (HMOX1)", "test": "HMOX1 production by fibroblasts (ELISA)", "assay_type": "cell-based, human", "conditions": "24 hours", "description": "An extract of the invention was analysed on the protein expression of haem oxygenase.\nNormal human fibroblasts were treated for 24 hours with a 0.002% and a 0.005% (w/v) extract of the invention, as obtained in Example 1, and with 5 and 10 μM curcumin (reference hormetin).\nAt the end of the treatment, intracellular haem oxygenase 1 (or HMOX1 or H01) was quantified using an ELISA technique. Staining, proportional to the quantity of the marker of interest, was measured by reading the optical density (OD) at 450 nm, and the value obtained was related to the quantity of cells obtained by a protein assay using the BC Assay (Interchim).\nThe results were statistically analysed by one-way ANOVA followed by Dunnett's test (GraphPad PRISM version 5.02 software, GraphPad Software, San Diego, Calif., USA)."}, "[4]": {"tested_on": "Nrf2", "test": "Nrf2 activity in ARE-luciferase-transfected HaCaT keratinocytes", "assay_type": "cell-based", "conditions": "6 hours", "description": "The effect of the extract of the invention was evaluated with respect to activation of translocation of Nrf2, precursor of the cascade responsible for the hormetic response and for certain detoxification pathways of the organism.\nARE-luciferase-transfected HaCaT keratinocytes, containing the antioxidant response element (ARE) plasmid NQO1, which is a specific plasmid for activation of Nrf2 and luciferase (reporter gene), were treated for 6 hours at 37° C. with an extract of the invention, as obtained in Example 1, at concentrations ranging from 0.01% to 0.0005% (w/v) and with a positive reference, 20 μM tert-butylhydroquinone.\nAt the end of the treatment, the cell monolayers are lysed, luciferase activity is assayed using a “Luciferase Assay Kit” from PROMEGA, and the protein content of each lysate is assayed using the Bradford method (BioRad)."}, "[5]": {"tested_on": "MMP1", "test": "IR-induced production of MMP1 in normal human fibroblasts (ELISA)", "assay_type": "cell-based", "conditions": "10^−7 M, 48 hours after IR 0.57 kJ/cm^2", "description": "The ability of an extract of the invention to protect dermal cells from the harmful effects of IR rays was studied by evaluating MMP1 production.\nNormal human fibroblasts (NHF) were incubated in the presence of a 0.001% extract of the invention, as obtained in Example 1, or of 10^−7 M dexamethasone (reference anti-inflammatory) for 48 hours following 1 hour of infrared irradiation (0.57 kJ/cm^2).\nAfter incubation, the supernatants are collected in order to assay released MMP1 (ELISA Kit, R&D Systems).\nas §1"}, "[6]": {"tested_on": "keratinocytes treated by UV at 2400 J/m^2", "test": "ROS production in keratinocytes treated by UV at 2400 J/m^2", "assay_type": "cell-based, human", "conditions": "500 μM", "description": "The antioxidant potential of an extract of the invention with respect to UV-irradiation-induced reactive oxygen species (ROS) was studied.\nNormal human keratinocytes were incubated for 24 hours in the presence of a 0.001% and a 0.005% (w/v) extract of the invention, as obtained in Example 1, or of 500 μM vitamin C (reference antioxidant), before incorporation of the H2DCF-DA probe (incubation for 1 hour).\nThe keratinocytes were then stimulated with UV at 2400 J/m^2 (2000 J/m^2 UVB and 400 J/m^2 UVA) then returned to culture in the presence of a 0.001% and a 0.005% (w/v) extract of the invention, as obtained in Example 1, or of 500 μM vitamin C, for 15 minutes at 37° C.\nThe production of reactive oxygen species (ROS) was evaluated by measurement of fluorescence and the value obtained was normalized to the quantity of cells obtained using an MTT cell viability assay.\n(§2) The results were statistically analysed by one-way ANOVA followed by Tukey's test (GraphPad PRISM version 5.02 software, GraphPad Software, San Diego, Calif., USA)."}, "[7]": {"tested_on": "H2O2-treated keratinocytes", "test": "ROS production in H2O2-treated keratinocytes (H2DCF-DA probe)", "assay_type": "cell-based, human", "conditions": "24 hours, then 100 μM H2O2 20 minutes", "description": "The antioxidant potential of an extract of the invention with respect to H2O2 induction of reactive oxygen species was studied.\nNormal human keratinocytes were incubated for 24 hours in the presence of a 0.002%, a 0.005% and a 0.01% (w/v) extract of the invention, as obtained in Example 1, or of 500 μM vitamin C and 10 μM quercetin (reference antioxidants) before incorporation of the H2DCF-DA probe (incubation for 60 minutes).\nThe keratinocytes were then stimulated with 100 μM hydrogen peroxide (H2O2) for 20 minutes and the production of reactive oxygen species (ROS) was evaluated by measurement of fluorescence.\nas §2"}}, "data": [{"smiles": "COc1ccc2c(c1)c(CC(=O)O)c(C)n2C(=O)c1ccc(Cl)cc1", "note": "[Indomethacin, indomethacin]", "values": [{"measurement": "PGE2", "setting": "[1]", "value": "52 ± 8", "unit": "pg/mL"}, {"measurement": "inhibition at 1 µM", "setting": "[1]; Homo sapiens, Keratinocyte", "value": 100, "unit": "%"}]}, {"smiles": "COc1cc(/C=C/C(=O)CC(=O)/C=C/c2ccc(O)c(OC)c2)ccc1O", "note": "[Curcumin, curcumin]", "values": [{"measurement": "ROS % change (Significance)", "setting": "[2]; 10 μM", "value": "−16", "unit": "%"}, {"measurement": "ROS (fluorescence units)", "setting": "[2]; 10 μM", "value": "14065 ± 1231", "unit": "fluorescence units"}, {"measurement": "HMOX1 (ng/ml on quantity of cells)", "setting": "[3]; 5 μM", "value": "0.060 ± 0.002 ng/ml on quantity of cells"}, {"measurement": "HMOX1 (ng/ml on quantity of cells)", "setting": "[3]; 10 μM", "value": "0.105 ± 0.006 ng/ml on quantity of cells"}]}, {"smiles": "CC(C)(C)c1cc(O)ccc1O", "note": "[Tert-butylhydroquinone, tert-butylhydroquinone]", "values": [{"measurement": "Nrf2 activity (mean normalized RLU/μg of proteins)", "setting": "[4]; 20 μM", "value": "23216.4 RLU/μg of proteins"}, {"measurement": "Nrf2 Activation (%)", "setting": "[4]; 20 μM (positive reference = 100)", "value": 100, "unit": "%"}]}, {"smiles": "Oc1ccc(C=Cc2cc(O)cc(O)c2)cc1", "note": "[resveratrol]", "values": [{"measurement": "ROS % change (Significance)", "setting": "[2]; 10 μM", "value": "−21", "unit": "%"}, {"measurement": "ROS (fluorescence units)", "setting": "[2]; 10 μM", "value": "20357 ± 503", "unit": "fluorescence units"}]}, {"smiles": "C[C@@H]1C[C@H]2[C@@H]3CCC4=CC(=O)C=C[C@]4(C)[C@@]3(F)[C@@H](O)C[C@]2(C)[C@@]1(O)C(=O)CO", "note": "[Dexamethasone, dexamethasone]", "values": [{"measurement": "% protection (IR-induced MMP1)", "setting": "[5]", "value": 102, "unit": "%"}, {"measurement": "MMP1", "setting": "[5]", "value": 9.3, "unit": "ng/mL"}]}, {"smiles": "O=C1O[C@H]([C@@H](O)CO)C(O)=C1O", "note": "[vitamin C]", "values": [{"measurement": "ROS % change (Significance)", "setting": "[2]; 500 μM", "value": "−16", "unit": "%"}, {"measurement": "ROS (fluorescence units)", "setting": "[2]; 500 μM", "value": "14089 ± 1719", "unit": "fluorescence units"}, {"measurement": "ROS (fluorescence intensity/MTT)", "setting": "[6]; UV 2400 J/m^2", "value": "26005 ± 3723 fluorescence intensity/MTT"}, {"measurement": "ROS % change", "setting": "[6]; UV 2400 J/m^2, vs control with UVs", "value": "−40", "unit": "%"}, {"measurement": "ROS % change (Significance)", "setting": "[7]; 500 μM", "value": "−51", "unit": "%"}, {"measurement": "ROS (fluorescence units)", "setting": "[7]; 500 μM", "value": "21719.018 ± 3174.253", "unit": "fluorescence units"}]}, {"smiles": "O=c1c(O)c(-c2ccc(O)c(O)c2)oc2cc(O)cc(O)c12", "note": "[quercetin]", "values": [{"measurement": "ROS % change (Significance)", "setting": "[2]; 10 μM", "value": "−32", "unit": "%"}, {"measurement": "ROS (fluorescence units)", "setting": "[2]; 10 μM", "value": "17140 ± 1930", "unit": "fluorescence units"}, {"measurement": "ROS % change (Significance)", "setting": "[7]; 10 μM", "value": "−67", "unit": "%"}, {"measurement": "ROS (fluorescence units)", "setting": "[7]; 10 μM", "value": "14367.847 ± 1790.753", "unit": "fluorescence units"}]}]}
